Results published in BigSolDB 2.1.

N[C@@H](Cc1ccccc1)C(=O)O
solubility (mole fraction)
Details	288.15 K	293.15 K	298.15 K	303.15 K	308.15 K
in ethanol	8.9e-05	9.96e-05	0.000116	0.000134	0.00016
in methanol	0.00032	0.000416	0.000563	0.00065	0.000743
in water	0.00219	0.00247	0.00277	0.00312	0.00348
